The supplement of paper PMC10307832

Tests used:
Assay in all cases: relative viability (nuclei count vs DMSO), 5 days (fraction); higher = more cells survive
[1] = test system: 201T
Procedure, shortened: (§1)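 Lung cancer cell lines in 1536-well plates got either a single drug or a fixed anchor-drug dose together with five library-drug doses (not always all listed) in √10 steps, by pin tool, on the day after seeding. Nuclei were counted after 5 days, and relative viability is the treated-to-vehicle ratio of nuclei counts. Values are medians of duplicate plates.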

[2] = test system: NCI-H1437
Procedure, shortened: as §1

[3] = test system: PC-3 [JPC-3]
Procedure, shortened: as §1

[4] = test system: HCC-78
Procedure, shortened: as §1

[5] = test system: NCI-H1734
Procedure, shortened: as §1

[6] = test system: UMC-11
Procedure, shortened: as §1

[7] = test system: SW 1573
Procedure, shortened: as §1

[8] = test system: HCC-44
Procedure, shortened: as §1

[9] = test system: LU99A
Procedure, shortened: as §1

[10] = test system: NCI-H441
Procedure, shortened: as §1

[11] = test system: NCI-H1355
Procedure, shortened: as §1

[12] = test system: HCC-366
Procedure, shortened: as §1

[13] = test system: NCI-H2126
Procedure, shortened: as §1

[14] = test system: NCI-H358
Procedure, shortened: as §1

[15] = test system: NCI-H727
Procedure, shortened: as §1

[16] = test system: NCI-H520
Procedure, shortened: as §1

[17] = test system: NCI-H2009
Procedure, shortened: as §1

[18] = test system: BEN
Procedure, shortened: as §1

[19] = test system: NCI-H2347
Procedure, shortened: as §1

[20] = test system: NCI-H838
Procedure, shortened: as §1

[21] = test system: HARA
Procedure, shortened: as §1

[22] = test system: NCI-H2405
Procedure, shortened: as §1

## COCC1(CO)C(=O)C2CCN1CC2 (stereo not given) [PRIMA-1MET] + CC(=O)c1c(C)c2cnc(Nc3ccc(N4CCNCC4)cn3)nc2n(C2CCCC2)c1=O [Palbociclib] (partner 0.5 µM)
[1]; first compound 0.2 µM
  relative viability: 0.386
[1]; first compound 0.6325 µM
  relative viability: 0.356
[1]; first compound 2 µM
  relative viability: 0.331
[1]; first compound 6.325 µM
  relative viability: 0.352
[1]; first compound 20 µM
  relative viability: 0.331
[2]; first compound 0.2 µM
  relative viability: 0.322
[2]; first compound 0.6325 µM
  relative viability: 0.313
[2]; first compound 2 µM
  relative viability: 0.306
[2]; first compound 6.325 µM
  relative viability: 0.324
[2]; first compound 20 µM
  relative viability: 0.299
[3]; first compound 0.2 µM
  relative viability: 0.597
[3]; first compound 0.6325 µM
  relative viability: 0.608
[3]; first compound 2 µM
  relative viability: 0.573
[3]; first compound 6.325 µM
  relative viability: 0.574
[3]; first compound 20 µM
  relative viability: 0.521
[4]; first compound 0.2 µM
  relative viability: 0.449
[4]; first compound 0.6325 µM
  relative viability: 0.507
[4]; first compound 2 µM
  relative viability: 0.397
[4]; first compound 6.325 µM
  relative viability: 0.446
[4]; first compound 20 µM
  relative viability: 0.427
[5]; first compound 0.2 µM
  relative viability: 0.362
[5]; first compound 0.6325 µM
  relative viability: 0.306
[5]; first compound 2 µM
  relative viability: 0.369
[5]; first compound 6.325 µM
  relative viability: 0.345
[5]; first compound 20 µM
  relative viability: 0.053
[6]; first compound 0.2 µM
  relative viability: 0.31
[6]; first compound 0.6325 µM
  relative viability: 0.362
[6]; first compound 2 µM
  relative viability: 0.268
[6]; first compound 6.325 µM
  relative viability: 0.356
[6]; first compound 20 µM
  relative viability: 0.278
[7]; first compound 0.2 µM
  relative viability: 0.456
[7]; first compound 0.6325 µM
  relative viability: 0.317
[7]; first compound 2 µM
  relative viability: 0.345
[7]; first compound 6.325 µM
  relative viability: 0.0953
[7]; first compound 20 µM
  relative viability: 0.0194
[8]; first compound 0.2 µM
  relative viability: 1.02
[8]; first compound 0.6325 µM
  relative viability: 0.873
[8]; first compound 2 µM
  relative viability: 0.95
[8]; first compound 6.325 µM
  relative viability: 0.954
[8]; first compound 20 µM
  relative viability: 1.03
[9]; first compound 0.2 µM
  relative viability: 0.43
[9]; first compound 0.6325 µM
  relative viability: 0.414
[9]; first compound 2 µM
  relative viability: 0.414
[9]; first compound 6.325 µM
  relative viability: 0.349
[9]; first compound 20 µM
  relative viability: 0.225
[10]; first compound 0.2 µM
  relative viability: 0.221
[10]; first compound 0.6325 µM
  relative viability: 0.227
[10]; first compound 2 µM
  relative viability: 0.192
[10]; first compound 6.325 µM
  relative viability: 0.201
[10]; first compound 20 µM
  relative viability: 0.205
[11]; first compound 0.2 µM
  relative viability: 0.465
[11]; first compound 0.6325 µM
  relative viability: 0.393
[11]; first compound 2 µM
  relative viability: 0.328
[11]; first compound 6.325 µM
  relative viability: 0.436
[11]; first compound 20 µM
  relative viability: 0.414
[12]; first compound 0.2 µM
  relative viability: 0.433
[12]; first compound 0.6325 µM
  relative viability: 0.31
[12]; first compound 2 µM
  relative viability: 0.382
[12]; first compound 6.325 µM
  relative viability: 0.407
[12]; first compound 20 µM
  relative viability: 0.0167
[13]; first compound 0.2 µM
  relative viability: 0.335
[13]; first compound 0.6325 µM
  relative viability: 0.336
[13]; first compound 2 µM
  relative viability: 0.321
[13]; first compound 6.325 µM
  relative viability: 0.372
[13]; first compound 20 µM
  relative viability: 0.326
[14]; first compound 0.2 µM
  relative viability: 0.148
[14]; first compound 0.6325 µM
  relative viability: 0.154
[14]; first compound 2 µM
  relative viability: 0.115
[14]; first compound 6.325 µM
  relative viability: 0.137
[14]; first compound 20 µM
  relative viability: 0.112
[15]; first compound 0.2 µM
  relative viability: 0.629
[15]; first compound 0.6325 µM
  relative viability: 0.584
[15]; first compound 6.325 µM
  relative viability: 0.672
[15]; first compound 20 µM
  relative viability: 0.379
[16]; first compound 0.2 µM
  relative viability: 0.249
[16]; first compound 2 µM
  relative viability: 0.202
[16]; first compound 6.325 µM
  relative viability: 0.216
[16]; first compound 20 µM
  relative viability: 0.142
[17]; first compound 0.2 µM
  relative viability: 0.185
[17]; first compound 0.6325 µM
  relative viability: 0.251
[17]; first compound 2 µM
  relative viability: 0.112
[17]; first compound 6.325 µM
  relative viability: 0.215
[17]; first compound 20 µM
  relative viability: 0.0008
[18]; first compound 0.2 µM
  relative viability: 0.46
[18]; first compound 0.6325 µM
  relative viability: 0.463
[18]; first compound 6.325 µM
  relative viability: 0.463
[18]; first compound 20 µM
  relative viability: 0.437
[19]; first compound 0.2 µM
  relative viability: 0.451
[19]; first compound 0.6325 µM
  relative viability: 0.317
[19]; first compound 2 µM
  relative viability: 0.365
[19]; first compound 6.325 µM
  relative viability: 0.42
[19]; first compound 20 µM
  relative viability: 0.313
[20]; first compound 0.2 µM
  relative viability: 0.261
[20]; first compound 0.6325 µM
  relative viability: 0.188
[20]; first compound 2 µM
  relative viability: 0.207
[20]; first compound 6.325 µM
  relative viability: 0.22
[20]; first compound 20 µM
  relative viability: 0.232
[21]; first compound 0.2 µM
  relative viability: 0.252
[21]; first compound 0.6325 µM
  relative viability: 0.318
[21]; first compound 6.325 µM
  relative viability: 0.286
[21]; first compound 20 µM
  relative viability: 0.261
[22]; first compound 0.2 µM
  relative viability: 0.487
[22]; first compound 0.6325 µM
  relative viability: 0.539
[22]; first compound 6.325 µM
  relative viability: 0.518
[22]; first compound 20 µM
  relative viability: 0.24
